From patent publication US9845322B2 (Hoffmann-La Roche Inc., priority 2016, dated 2017) come the findings set out here.

The test has as its system HBsAg secretion in HepG2.2.15 cells. In words: HBsAg assay (chemiluminescence immunoassay of secreted HBsAg in culture supernatant). Type of test: cell-based, HBV. The method in brief: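 IC50 taken from dose-response curves as the concentration halving secreted HBsAg relative to DMSO control. Measured by chemiluminescence immunoassay of culture supernatant from constitutively HBV-expressing HepG2.2.15 cells, seeded at 1.5×10^4/well in duplicate and exposed to three-fold serial compound dilutions at 1% final DMSO.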

Where [1] appears, read: Hepatitis B virus, HepG2.2.15, HepG2.2.15 cells, concentration at which HBsAg secretion was reduced by 50% compared to the no drug control, read-out: IC50 (HBsAg assay).
[2] abbreviates: HepG2.2.15 cells, concentration at which HBsAg secretion was reduced by 50% compared to the no drug control, read-out: IC50 (HBsAg assay).

Molecules are shown by their SMILES. Like-named read-outs stand apart in the source and are kept apart here.

Usually IC50 stands for the concentration needed to halve the response being measured. Regarding `CC1c2cnc(-c3ncccn3)nc2CCN1c1cc(F)c(F)c(OCC2CC2(F)F)c1` (centres unmarked) [Example 82], under setting [1], the IC50 worked out at 30 nM.

As for `CC1c2cnc(-c3ncccn3)nc2CCN1c1cc(F)c(F)c(OCCCC(=O)O)c1` (centres unmarked) [Example 50, 4-[2,3-difluoro-5-(5-methyl-2-pyrimidin-2-yl-7,8-dihydro-5H-pyrido[4,3-d]pyrimidin-6-yl)phenoxy]butanoic acid], the IC50 under setting [1] was determined as 1130 nM.

`COc1cc(N2CCc3nc(-c4ccccn4)ncc3C2C)cc(F)c1F` (single isomer, unassigned; (+)) [Example 6, (+)-6-(3,4-difluoro-5-methoxy-phenyl)-5-methyl-2-(2-pyridyl)-7,8-dihydro-5H-pyrido[4,3-d]pyrimidine]: under setting [2], the IC50 is 8070 nM.

Turning to `COc1cc(N2CCc3nc(-c4ncccn4)ncc3C2C)cc(Cl)n1` (centres unmarked) [Example 141, 6-(2-chloro-6-methoxy-4-pyridyl)-5-methyl-2-pyrimidin-2-yl-7,8-dihydro-5H-pyrido[4,3-d]pyrimidine], under setting [1], the IC50 worked out at 113 nM.

Take `CC1c2cnc(-c3ncccn3)nc2CCN1c1cc(OCC2CCOC2)cc(F)n1` (centres unmarked) [Example 154, 6-[6-fluoro-4-(tetrahydrofuran-3-ylmethoxy)-2-pyridyl]-5-methyl-2-pyrimidin-2-yl-7,8-dihydro-5H-pyrido[4,3-d]pyrimidine]: the IC50 under setting [1] turned out to be 7 nM.

As to `CC1c2cnc(-c3ncccn3)nc2CCN1c1cc(OCCCCCCCC(N)=O)cc(F)n1` (centres unmarked) [Example 169, 8-[[2-fluoro-6-(5-methyl-2-pyrimidin-2-yl-7,8-dihydro-5H-pyrido[4,3-d]pyrimidin-6-yl)-4-pyridyl]oxy]octanamide], the IC50 under setting [1] amounted to 18 nM.

`CC1c2cnc(-c3ncccn3)nc2CCN1c1cc(OCCCCCCC(N)=O)cc(F)n1` (single isomer, unassigned; (-)) [Example 156, (−)-7-[[2-fluoro-6-[5-methyl-2-pyrimidin-2-yl-7,8-dihydro-5H-pyrido[4,3-d]pyrimidin-6-yl]-4-pyridyl]oxy]heptanamide]: the IC50 under setting [1] turned out to be 6 nM.

In the case of `COc1cc(N2CCc3nc(-c4ncccn4)ncc3C2C)cc(F)n1` (centres unmarked) [Example 129, 6-(2-fluoro-6-methoxy-4-pyridyl)-5-methyl-2-pyrimidin-2-yl-7,8-dihydro-5H-pyrido[4,3-d]pyrimidine], under setting [1], the IC50 amounted to 18 nM.

Take `COc1cc(N2CCc3nc(-c4ncccn4)ncc3C2C)cc(F)c1F` (single isomer, unassigned; (+)) [Example 16, (+)-6-(3,4-difluoro-5-methoxy-phenyl)-5-methyl-2-pyrimidin-2-yl-7,8-dihydro-5H-pyrido[4,3-d]pyrimidine]: the IC50 under setting [2] amounted to 1520 nM.

`COc1cc(N2CCc3cc(-c4ncccn4)ncc3C2C)cc(F)c1-c1ccncc1` (centres unmarked) [Example 136, 2-[3-fluoro-5-methoxy-4-(4-pyridyl)phenyl]-1-methyl-6-pyrimidin-2-yl-3,4-dihydro-1H-2,7-naphthyridine]: the half-inhibitory concentration (IC50) under setting [1] stood at 357 nM.

Take `COCCOc1cc(N2CCc3nc(-c4ccccn4)ncc3C2C)cc(F)c1F` (single isomer, unassigned; (-)) [Example 21, (−)-6-[3,4-difluoro-5-(2-methoxyethoxy)phenyl]-5-methyl-2-(2-pyridyl)-7,8-dihydro-5H-pyrido[4,3-d]pyrimidine]: the half-inhibitory concentration (IC50) under setting [2] came out at 50 nM.

`CC1c2cnc(-c3ncccn3)nc2CCN1c1cc(F)c(F)c(OC(F)F)c1` (centres unmarked) [Example 71, 6-[3-(difluoromethoxy)-4,5-difluoro-phenyl]-5-methyl-2-pyrimidin-2-yl-7,8-dihydro-5H-pyrido[4,3-d]pyrimidine]: the IC50 under setting [1] amounted to 68 nM.

For `COc1cc(F)cc(N2CCc3nc(-c4ncccn4)ncc3C2C)c1Cl` (single isomer, unassigned; (-)) [Example 131, (−)-6-(2-chloro-5-fluoro-3-methoxy-phenyl)-5-methyl-2-pyrimidin-2-yl-7,8-dihydro-5H-pyrido[4,3-d]pyrimidine], the IC50 under setting [1] turned out to be 2 nM.

For the molecule `CC1c2cnc(-c3ncccn3)nc2CCN1c1cc(F)c(F)c(OCCCN)c1` (centres unmarked) [Example 91, 3-[2,3-difluoro-5-(5-methyl-2-pyrimidin-2-yl-7,8-dihydro-5H-pyrido[4,3-d]pyrimidin-6-yl)phenoxy]propan-1-amine], the IC50 under setting [1] was found to be 483 nM.

On to `CC1c2cnc(-c3ccccn3)nc2CCN1c1cc(F)c(F)c(OCCCNS(C)(=O)=O)c1` (centres unmarked) [Example 35, N-[3-[2,3-difluoro-5-[5-methyl-2-(2-pyridyl)-7,8-dihydro-5H-pyrido[4,3-d]pyrimidin-6-yl]phenoxy]propyl]methanesulfonamide], for which the IC50 under setting [1] was 46 nM.

Turning to `COc1cc(N2CCc3nc(-c4ncccn4)ncc3C2C)cc(C(F)(F)F)c1` (centres unmarked) [Example 112, 6-[3-methoxy-5-(trifluoromethyl)phenyl]-5-methyl-2-pyrimidin-2-yl-7,8-dihydro-5H-pyrido[4,3-d]pyrimidine], the IC50 under setting [1] came out at 84 nM.

In the case of `CC1c2cnc(-c3ncccn3)nc2CCN1c1cc(F)c(F)c(OCCCCCCN)c1` (single isomer, unassigned; (-)) [Example 60, (−)-6-[2,3-difluoro-5-(5-methyl-2-pyrimidin-2-yl-7,8-dihydro-5H-pyrido[4,3-d]pyrimidin-6-yl)phenoxy]hexan-1-amine], the IC50 under setting [2] came to 22 nM.

Regarding `CC1c2cnc(-c3ncccn3)nc2CCN1c1cc(F)c(F)c(OCCCN2CCCC2=O)c1` (centres unmarked) [Example 96, 1-[3-[2,3-difluoro-5-(5-methyl-2-pyrimidin-2-yl-7,8-dihydro-5H-pyrido[4,3-d]pyrimidin-6-yl)phenoxy]propyl]pyrrolidin-2-one], the concentration for half-maximal inhibition (IC50) under setting [1] came out at 94 nM.

On to `COc1cc(F)nc(N2CCc3nc(-c4ncccn4)ncc3C2C)c1` (single isomer, unassigned; (-)) [Example 138, (−)-6-(6-fluoro-4-methoxy-2-pyridyl)-5-methyl-2-pyrimidin-2-yl-7,8-dihydro-5H-pyrido[4,3-d]pyrimidine], for which the IC50 under setting [2] is 11 nM.

`CC1c2cnc(-c3ncccn3)nc2CCN1c1cc(OCCCCC(N)=O)cc(F)n1` (single isomer, unassigned; (-)) [Example 158, (−)-5-[[2-fluoro-6-[5-methyl-2-pyrimidin-2-yl-7,8-dihydro-5H-pyrido[4,3-d]pyrimidin-6-yl]-4-pyridyl]oxy]pentanamide]: the IC50 (Hepatitis B virus, HepG2.2.15, read-out: IC50 (HBsAg assay)) was 16 nM.

Take `CC1c2cnc(-c3ncccn3)nc2CCN1c1cc(F)c(F)c(OCCCCCCNC(=O)OC(C)(C)C)c1` (centres unmarked) [Example 58, tert-butyl N-[6-[2,3-difluoro-5-(5-methyl-2-pyrimidin-2-yl-7,8-dihydro-5H-pyrido[4,3-d]pyrimidin-6-yl)phenoxy]hexyl]carbamate]: the IC50 under setting [1] was 193 nM.

As to `CC1c2cnc(-c3ncccn3)nc2CCN1c1cc(F)c(F)c(OCC2CC2)c1` (centres unmarked) [Example 88, 6-[3-(cyclopropylmethoxy)-4,5-difluoro-phenyl]-5-methyl-2-pyrimidin-2-yl-7,8-dihydro-5H-pyrido[4,3-d]pyrimidine], the IC50 under setting [1] was 27 nM.

Take `CC1c2cnc(-c3ncccn3)nc2CCN1c1cc(NS(C)(=O)=O)cc(F)n1` (centres unmarked) [Example 211, N-[2-fluoro-6-(5-methyl-2-pyrimidin-2-yl-7,8-dihydro-5H-pyrido[4,3-d]pyrimidin-6-yl)-4-pyridyl]methanesulfonamide]: the IC50 under setting [1] came out at 270 nM.

Turning to `CC1c2cnc(-c3ncccn3)nc2CCN1c1cc(F)c(F)c(OCC(N)=O)c1` (single isomer, unassigned; (+)) [Example 67, (+)-2-[2,3-difluoro-5-[5-methyl-2-pyrimidin-2-yl-7,8-dihydro-5H-pyrido[4,3-d]pyrimidin-6-yl]phenoxy]acetamide], under setting [2], the IC50 was found to be 32300 nM.

As for `CC1c2cnc(-c3ncccn3)nc2CCN1c1cc(N)cc(F)n1` (centres unmarked) [Example 210, 2-fluoro-6-(5-methyl-2-pyrimidin-2-yl-7,8-dihydro-5H-pyrido[4,3-d]pyrimidin-6-yl)pyridin-4-amine], the IC50 under setting [1] came out at 65 nM.

As to `CC1c2cnc(-c3ncccn3)nc2CCN1c1cc(F)cc(N(C)C)n1` (centres unmarked) [Example 197, 4-fluoro-N,N-dimethyl-6-(5-methyl-2-pyrimidin-2-yl-7,8-dihydro-5H-pyrido[4,3-d]pyrimidin-6-yl)pyridin-2-amine], the IC50 under setting [2] was 6 nM.

As for `CC1c2cnc(-c3ncccn3)nc2CCN1c1cc(F)c(F)c(OCC2CCS(=O)(=O)C2)c1` (centres unmarked) [Example 100], the IC50 under setting [1] was 96 nM.

Regarding `CC1c2cnc(-c3ncccn3)nc2CCN1c1cc(OCCCOCC(=O)O)cc(F)n1` (centres unmarked) [Example 162, 2-[3-[[2-fluoro-6-(5-methyl-2-pyrimidin-2-yl-7,8-dihydro-5H-pyrido[4,3-d]pyrimidin-6-yl)-4-pyridyl]oxy]propoxy]acetic acid], under setting [1], the 50% inhibitory concentration (IC50) amounted to 1780 nM.

In the case of `COCCCS(=O)(=O)c1cc(F)cc(N2CCc3nc(-c4ncccn4)ncc3C2C)c1` (centres unmarked) [Example 187, 6-[3-fluoro-5-(3-methoxypropylsulfonyl)phenyl]-5-methyl-2-pyrimidin-2-yl-7,8-dihydro-5H-pyrido[4,3-d]pyrimidine], the IC50 under setting [1] was 613 nM.

For the molecule `CC1c2cnc(-c3ncccn3)nc2CCN1c1cc(F)c(F)c(OCCCN2CCN(C)CC2)c1` (centres unmarked) [Example 101, 6-[3,4-difluoro-5-[3-(4-methylpiperazin-1-yl)propoxy]phenyl]-5-methyl-2-pyrimidin-2-yl-7,8-dihydro-5H-pyrido[4,3-d]pyrimidine], the IC50 under setting [1] was 113 nM.

In the case of `COc1cc(N2CCc3nc(-c4ncccn4)ncc3C2C)c(Cl)c(F)c1Cl` (single isomer, unassigned; (+)) [Example 125, (+)-6-(2,4-dichloro-3-fluoro-5-methoxy-phenyl)-5-methyl-2-pyrimidin-2-yl-7,8-dihydro-5H-pyrido[4,3-d]pyrimidine], under setting [1], the IC50 was found to be 1120 nM.

Consider `CC1c2cnc(-c3ccccn3)nc2CCN1c1ccc([N+](=O)[O-])cc1` (single isomer, unassigned; (-)) [Example 3, (−)-5-methyl-6-(4-nitrophenyl)-2-(2-pyridyl)-7,8-dihydro-5H-pyrido[4,3-d]pyrimidine], for which, under setting [2], the IC50 amounted to 115 nM.
